How the values were obtained:
Female SD rats = experiment: Inhibitory effect of compound on sulprostone-induced bladder contraction; type: in vivo, rat; settings: urethane-anesthetized female SD rats, sulprostone 0.3 mg/kg s.c., test agent 1.0 mg/kg intravenously; for Bladder Contraction Inhibition Rate (%) 15 minutes: 15 minutes after administration; for Bladder Contraction Inhibition Rate (%) 60 minutes: 60 minutes after administration
Text: Inhibitory Effect of Compound on Sulprostone-Induced Bladder Contraction
Female SD rats were used. Under urethane anesthesia (1.25 g/kg, administered subcutaneously), a tracheal cannula (Size 8, HIBIKI) and a femoral vein cannula for administration (23G needle-equipped PESO) were inserted thereinto. The bladder cannula (PE50) was inserted from the bladder apex. The bladder cannula was connected to a three-way stopcock, and then one port was connected to a pressure transducer and the other port was connected to a syringe filled with saline. Saline was injected into the bladder at an injection rate of 3.6 mL/hour and the bladder contraction pressure was recorded at the time of injection with a recorder (RECTI-HORITZ-8K, NEC Corporation). After 10 minutes from stabilization of the bladder contraction pressure during urination, sulprostone was administered subcutaneously (0.3 mg/kg). Subsequently, once the bladder contraction pressure became constant, a test agent was administered intravenously (1.0 mg/kg). An average bladder contraction pressure during the 10 minute period before administration of sulprostone was used as a baseline (0%). Further, an average bladder contraction pressure during the 10 minute period directly before administration of the test agent was used as a maximum bladder contraction pressure (100%). The average bladder contraction pressures were measured for a 5 minute period before and after 15 minutes and 60 minutes from administration of the test agent. The ratio of this measured value to the maximum bladder contraction pressure was calculated by the following equation and regarded as an average bladder contraction rate after administration of the test agent: (Average Bladder Contraction Rate after Administration of Test Agent (%))=[(Average Bladder Contraction Pressure after Administration of Test Agent)/(Maximum Bladder Contraction Pressure)]×100 EQUATION 1
In addition, the difference between the maximum bladder contraction rate (100%) and the average bladder contraction rate (%) after administration of the test agent was calculated by the following equation and regarded as a bladder contraction inhibition rate of the test agent: (Bladder Contraction Inhibition Rate)=100%−(Average Bladder Contraction Rate after Administration of Test Agent (%)) EQUATION 2

rat EP1 receptor = target: T1, rat EP1 receptor (Rattus norvegicus, UniProt P70597); experiment: Test for confirmation of EP1 receptor antagonism: inhibition of prostaglandin E2-induced increase in intracellular calcium concentration in rat EP1 receptor-expressing COS-1 cells; type: cell-based; settings: prostaglandin E2 10 nM, intracellular calcium fluorescence signal
T1 construct: expressed in transfected cells; host or cells: COS-1 cells, transient transfection with Lipofectamine 2000
T1 sequence (P70597 1-405): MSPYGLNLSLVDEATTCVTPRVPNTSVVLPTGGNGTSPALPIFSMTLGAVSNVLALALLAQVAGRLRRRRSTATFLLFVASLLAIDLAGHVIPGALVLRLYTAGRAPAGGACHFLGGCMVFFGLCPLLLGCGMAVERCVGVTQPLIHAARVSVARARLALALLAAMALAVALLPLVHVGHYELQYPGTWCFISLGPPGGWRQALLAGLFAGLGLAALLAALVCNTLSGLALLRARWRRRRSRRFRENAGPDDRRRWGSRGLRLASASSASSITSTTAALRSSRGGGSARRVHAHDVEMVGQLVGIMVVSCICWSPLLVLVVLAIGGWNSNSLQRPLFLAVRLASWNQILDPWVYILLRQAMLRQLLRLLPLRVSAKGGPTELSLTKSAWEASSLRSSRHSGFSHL
Description: Test for Confirmation of EP1 Receptor Antagonism
(1) Preparation of Rat EP1 Expression Vector
Using Rat Kidney BD Marathon-Ready cDNA (Nippon Becton Dickinson Company, Ltd.) as a template, and using a forward primer shown in (SEQ ID NO:1) and a reverse primer shown in (SEQ ID NO:2), a first run of PCR was carried out using KOD-Plus-Ver 2.0 (Toyobo Co., Ltd.). Further, using this amplification product as a template, and using a forward primer shown in (SEQ ID NO:3) and a reverse primer shown in (SEQ ID NO:4), a second run of PCR was carried out in the same manner. The amplification product obtained by the second run of PCR was incorporated into a vector (pcDNA3.1 D/V5-His-TOPO (registered trademark), Invitrogen Japan K. K.). By a conventional method, the vector containing this amplification product was introduced into E. coli (One Shot TOP10 Competent Cells, Invitrogen Corporation) and transformed. This transformed E. coli was cultured in an LB agar medium for one day. After the culture, colonies were selected and cultured in an LB liquid medium containing 50 μg/mL of ampicillin. After the culture, the vector was purified using a QIAprep Spin Miniprep Kit (Qiagen K. K.). The base sequence of the insertion site of this vector (SEQ ID NO:5) was compared with the rat EP1 base sequence (Ptger1) registered as Accession No. NM_013100 in a publicly-known database (NCBI), and as a result, the base sequences completely matched except for a single base. Further, the amino acid sequence translated by the base sequence completely matched the amino acid sequence of the rat EP1 receptor registered as an NCBI Accession No. NP_037232. Therefore, it was confirmed that the cloned gene sequence was a base sequence of the rat EP1 receptor and the obtained amino acid sequence was that of the rat EP1 receptor. The pcDNA3.1 D/V5-His-TOPO (registered trademark) into which the nucleic acid shown in (SEQ ID NO:5) had been inserted was taken as a rat EP1-expressing vector.
(2) Preparation of Rat EP1 Receptor-Expressing Cells
COS-1 cells (Dainippon Sumitomo Pharma Co., Ltd.) were cultured until they reached confluence in an incubator at 37° C. under a 5% CO2 gas condition, using a D-MEM liquid medium (high glucose and L-glutamine contained, Invitrogen Corporation) to which a penicillin-streptomycin solution (Invitrogen Corporation, final concentration: 100 U/mL as benzylpenicillin; 100 μg/mL as streptomycin) as an antibiotic, MEM nonessential amino acids (Invitrogen Corporation, final concentration: 0.1 mM), and fetal calf serum (Sanko Junyaku Co., Ltd., final concentration: 10%) were added.
(2-2) COS-1 Cell Subculture
The cells that had reached confluence were stripped with 0.05% trypsin/0.53 mM EDTA•4Na (Invitrogen Japan K. K.) and resuspended in the liquid medium. The resuspended cells were diluted and cultured in the liquid medium at a spread ratio from 1:4 to 1:8.
(2-3) Preparation of Cells for Introduction of Rat EP1-Expressing Vector
The cells that had reached confluence were stripped with 0.05% trypsin/0.53 mM EDTA•4Na, and resuspended in a D-MEM liquid medium (high glucose and L-glutamine contained, Invitrogen Corporation) to which MEM nonessential amino acids (final concentration: 0.1 mM) and fetal calf serum (final concentration: 10%) were added. In each well of a Poly D-lysine-coated 96-well microplate (BD BioCoat (registered trademark), Nippon Becton Dickinson Company, Ltd.), this resuspended cell suspension culture was prepared to be 5×10^4 cells/well in 100 μL of the liquid medium, and 100 μL of the cell suspension was dispensed and seeded in each well. After seeding, the cells were cultured in an incubator at 37° C. under a 5% CO2 gas condition. Once the cells for introduction of a rat EP1-expressing vector were adhered (about 2 hours after seeding), introduction of the rat EP1-expressing vector was carried out in the following order.
(2-4) Introduction of Rat EP1-Expressing Vector […]

SMILES | Bladder Contraction Inhibition Rate (%) 15 minutes (Female SD rats) [%] | Bladder Contraction Inhibition Rate (%) 60 minutes (Female SD rats) [%] | IC50 (rat EP1 receptor) [nM]
CCS(=O)(=O)NC(=O)c1cccc(Cn2c(-c3ccccc3)cc3cc(OC)c(Cl)cc32)n1 [Example 1-6, 6-(6-chloro-5-methoxy-2-phenylindol-1-ylmethyl)-N-(ethanesulfonyl)pyridine-2-carboxamide] | 70.0 | 35.8 | 19
COc1ccc2c(c1)cc(-c1ccccc1)n2Cc1cccc(C(=O)NS(C)(=O)=O)n1 [Example 1-1, N-(Methanesulfonyl)-6-(5-methoxy-2-phenylindol-1-ylmethyl)pyridine-2-carboxamide] | 67.3 | 75.5 | 47
COc1ccc2c(c1)cc(C1(C)CC1)n2Cc1cccc(-c2nnn[nH]2)n1 [Example 5-5, 5-methoxy-2-(1-methylcyclopropyl)-1-[6-(1H-1,2,3,4-tetrazol-5-yl)pyridin-2-ylmethyl]-1H-indole] | 85.3 | 55.2 | 24
COc1ccc2c(c1)cc(-c1ccccc1)n2Cc1cccc(-c2nnn[nH]2)n1 [Example 2-1, 5-Methoxy-2-phenyl-1-[6-(1H-1,2,3,4-tetrazol-5-yl)pyridin-2-ylmethyl]-1H-indole] | 73.2 | 78.1 | 34

Reference: US8796247B2, “Indole derivative, and pharmacologically acceptable salt thereof” (Kissei Pharmaceutical Co., Ltd., priority 2011, dated 2014)
